Experimental data: paper PMC5286520 (Scientific Reports, 2017)
Like-named read-outs stand apart in the source and are kept apart here. Bridge positions count the residues as written; N and C are the ends. Square brackets hold non-standard residues; d marks the D form. Peptide text beside a SMILES is read from it.

Tests used:
human V2R [1] = target: T1, human V2R (Homo sapiens, UniProt P30518); test: cell-based; conditions: luciferase reporter, CRE response element; mean ± SEM; read-out: Potency (EC50)
T1 construct: expressed in transfected cells; host or cells: HEK293 cells, transient (jetPRIME); for the reporter assay co-transfected with pGL4.29 [luc2P/CRE/Hygro]
Protocol: (§1) Chinese Hamster Ovary cells (CHO) were cultured in Ham’s F12 media supplemented with 10% fetal bovine serum (FBS), 1% PenStrep (all from Sigma-Aldrich, Munich, Germany) and grown in a humidified atmosphere of 37 °C, 5% CO2 and passaged on average twice per week. CHO cells were used for expression of inotocin receptor (L. niger, T. castaneum). Cell transfections were carried out with 10 μg of plasmid using Lipofectamine LTX (Life Technologies, Invitrogen, Carlsbad, USA) for invertebrate receptors. For the expression of human OTR, V1aR, V1bR and V2R, HEK293 cells were transfected using jetPRIME (Polyplus Transfections, Illkirch-Graffenstaden, France)[35]. Cells were maintained in DMEM (GE Healthcare Hy Clone™, Logan, USA) supplemented with 10% FBS and 1% PenStrep.
(§2) Activation of Gq-signalling via the human V1aR, V1bR and OTR, as well as the insect INTR was measured by inositol-1-phosphate (IP1) quantification using an IP1 Tb kit (Cisbio, Codolet, France). Transfected cells were seeded in 96 well-plates, with a cell density of 10^4 cells per well. Cell culture media was removed from the wells after 6 h and 70 μL of peptide of interest, prepared in IP1 1X Stimulation Buffer at the desired concentrations, was added. Samples were measured in technical triplicates. After 1 h incubation at 37 °C, 15 μL of IP1-d2 was added, following the same volume of Ab-cryptate. […] Activation of Gs-signalling via the human V2R was measured using a luciferase reporter assay. HEK293 transiently expressing V2R were co-transfected with the pGL4.29 [luc2P/CRE/Hygro] (Promega, Mannheim, Germany) plasmid. […] For cell-based functional assays (luciferase and IP1), subtraction of the negative control (stimulation buffer) was applied to all data set. The normalization was performed to the highest value of the positive control from at least 4 independent experiments. Data were fitted using GraphPad Prism 5.0 with an equation for non-linear regression (sigmoidal, slope fit of 1). Values are reported as mean ± SEM. For Schild regression analysis, each concentration-ratio (r) was calculated as the agonist EC50 in the presence of a respective concentration of [D-Arg8]-inotocin by the EC50 of the agonist alone.

human V1bR [2] = target: T2, human V1bR (Homo sapiens, UniProt P47901); test: cell-based
T2 construct: expressed in transfected cells; host or cells: HEK293 cells, transient (jetPRIME)
T2 sequence (P47901 1-424): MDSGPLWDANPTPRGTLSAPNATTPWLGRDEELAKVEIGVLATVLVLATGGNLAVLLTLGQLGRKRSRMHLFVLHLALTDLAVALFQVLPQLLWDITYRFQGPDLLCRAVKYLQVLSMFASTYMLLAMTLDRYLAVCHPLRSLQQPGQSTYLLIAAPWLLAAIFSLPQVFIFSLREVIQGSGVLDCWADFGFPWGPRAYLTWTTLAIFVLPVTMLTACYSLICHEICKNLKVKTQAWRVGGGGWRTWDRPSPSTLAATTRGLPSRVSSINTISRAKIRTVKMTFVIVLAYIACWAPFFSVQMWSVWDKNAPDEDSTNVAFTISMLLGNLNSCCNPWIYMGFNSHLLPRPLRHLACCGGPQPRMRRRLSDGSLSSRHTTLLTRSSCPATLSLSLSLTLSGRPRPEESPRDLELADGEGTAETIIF
Protocol: as §1, §2

human OTR [3] = target: T3, human OTR (Homo sapiens, UniProt P30559); test: IP1 accumulation, HEK293 cells expressing human OTR; type: cell-based
T3 construct: expressed in transfected cells; host or cells: HEK293 cells, transient (jetPRIME)
T3 sequence (P30559 1-389): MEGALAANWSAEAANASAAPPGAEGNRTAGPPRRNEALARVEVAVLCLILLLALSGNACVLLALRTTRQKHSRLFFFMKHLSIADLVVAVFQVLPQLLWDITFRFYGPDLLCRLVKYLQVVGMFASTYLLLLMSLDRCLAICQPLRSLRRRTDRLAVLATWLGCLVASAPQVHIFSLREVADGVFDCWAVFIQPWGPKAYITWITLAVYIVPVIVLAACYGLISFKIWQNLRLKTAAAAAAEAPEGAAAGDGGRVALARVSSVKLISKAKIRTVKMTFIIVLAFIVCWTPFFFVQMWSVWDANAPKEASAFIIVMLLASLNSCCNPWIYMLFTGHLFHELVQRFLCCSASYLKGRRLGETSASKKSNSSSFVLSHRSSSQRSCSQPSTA
Protocol: as §1, §2

human OTR [4] = target: T3, human OTR; test: Radioligand displacement of [3H] oxytocin, human OTR membranes; type: binding; conditions: read-out: Affinity (Ki)
Protocol: as §1
(§3) Unbound ligands were washed off (Skatron Cell Harvester). […] Bindings of [^3H] AVP and [^3H] […] Bindings of [^3H] inotocin to membranes (10 μg) expressing INTR from L. niger, or [^3H] inotocin to membranes (10 μg) expressing INTR from T. castaneum, respectively, were assayed for displacement with an excess of inotocin (10^−11 to 10^−5 M) (n ≥ 3, except where otherwise stated). […] Specific binding was calculated by subtracting the non-specific binding from the total binding. […] Inhibition constants (Ki) were calculated from IC50 using the method by Cheng and Prusoff[65].

[5] = type: in vitro ADME, human
Protocol: Serum stability was tested as described previously. Briefly, serum was obtained prepared from human blood (self-donor), allowed to coagulate for 2 h at 23 °C and centrifuged at 12,000 × g for 10 min. Peptides (100 μM) were incubated in serum for 2, 4, 6, 8, 10 and 24 h at 37 °C. To evaluate peptide stability, aliquots ([…]) were analysed via RP-HPLC (UltiMate 3000, Thermo Scientific Dionex, Vienna, Austria) on a C18 column (Phenomenex Kinetex, Aschaffenburg, Germany) with a 3% gradient using 0.1% (v/v) TFA and 90/10/0.1% (v/v/v) acetonitrile/H2O/TFA as eluents. Half-life (t1/2) of peptides was calculated using non-linear regression analysis using Graph Pad Prism.
Supplementary Fig. 5. Human serum stability of the inotocin D-analogue. [D-Arg 8 ]-inotocin […]
serum and their stability monitored via HPLC over a time course of 2, 4, 6, 8, 10 and 24 h. Melittin, a haemolytic peptide from the bee venom was used as a positive control f or peptide degradation.
Area under the curves of samples was determined and correlated to the negative control analyte, which was dissolved in 0.1% TFA; thus they were not subject to degradation and were assumed therefore as 100%. Peptide stability was expressed in percentage of peptide remaining.
(1 picture or pasted object on this page, not shown here)

human V1aR [6] = target: T4, human V1aR (Homo sapiens, UniProt P37288); test: IP1 accumulation, HEK293 cells expressing human V1aR; type: cell-based; set-up: expressed in transfected cells; host or cells: HEK293 cells, transient (jetPRIME)
Protocol: as §1, §2

human V1aR [7] = target: T4, human V1aR; test: Radioligand displacement of [3H] vasopressin, human V1aR membranes; type: binding; set-up: expressed in transfected cells; host or cells: HEK293 cells, transient (jetPRIME)
Protocol: as §1, §3

human V1bR [8] = target: T2, human V1bR; test: Radioligand displacement of [3H] vasopressin, human V1bR membranes; type: binding
Excerpt: Unbound ligands were washed off (Skatron Cell Harvester). […] For the displacement at the human OTR, V1aR, V1bR and V2R the normalization to 100% refers on average to 0.49, 1.4, 0.36, 1.1 pmoles of ligand bound per milligram of membrane for human OTR, V1aR, V1bR and V2R, respectively. […] For the displacement at the insect receptors the normalization to 100% refers on average to 0.65 and 0.69 pmoles of ligand bound per milligram of membrane for inotocin receptor from L. niger and T. castaneum, respectively. Bindings of [^3H] inotocin to membranes (10 μg) expressing INTR from L. niger, or [^3H] inotocin to membranes (10 μg) expressing INTR from T. castaneum, respectively, were assayed for displacement with an excess of inotocin (10^−11 to 10^−5 M) (n ≥ 3, except where otherwise stated). […] Specific binding was calculated by subtracting the non-specific binding from the total binding. IC50 values were obtained by fitting the data to a three-parameter logistic Hill equation. Inhibition constants (Ki) were calculated from IC50 using the method by Cheng and Prusoff[65].

human V2R [9] = target: T1, human V2R; test: Radioligand displacement of [3H] vasopressin, human V2R membranes; type: binding
Protocol: as §1
Unbound ligands were washed off (Skatron Cell Harvester). […] Bindings of [^3H] AVP and [^3H] […] Bindings of [^3H] inotocin to membranes (10 μg) expressing INTR from L. niger, or [^3H] inotocin to membranes (10 μg) expressing INTR from T. castaneum, respectively, were assayed for displacement with an excess of inotocin (10^−11 to 10^−5 M) (n ≥ 3, except where otherwise stated). […] Specific binding was calculated by subtracting the non-specific binding from the total binding. IC50 values were obtained by fitting the data to a three-parameter logistic Hill equation. Inhibition constants (Ki) were calculated from IC50 using the method by Cheng and Prusoff[65].

human myometrium = test: Ex vivo human myometrial contractility, vasopressin-augmented (0.5 nM); conditions: vasopressin 0.5 nM
human V1aR [10] = target: T4, human V1aR; test: cell-based
[11] = tested on: inotocin R (T. castaneum); test: IP1 accumulation, CHO cells expressing T. castaneum inotocin receptor; type: cell-based, Tribolium castaneum; conditions: 10 µM peptide, T. castaneum INTR
Protocol: as §1
(§4) Activation of Gq-signalling via the human V1aR, V1bR and OTR, as well as the insect INTR was measured by inositol-1-phosphate (IP1) quantification using an IP1 Tb kit (Cisbio, Codolet, France). Transfected cells were seeded in 96 well-plates, with a cell density of 10^4 cells per well. […] Samples were measured in technical triplicates. […] Activation of Gs-signalling via the human V2R was measured using a luciferase reporter assay. […] For Schild regression analysis, each concentration-ratio (r) was calculated as the agonist EC50 in the presence of a respective concentration of [D-Arg8]-inotocin by the EC50 of the agonist alone.

inotocin R (L. niger) = test: IP1 accumulation, CHO cells expressing L. niger inotocin receptor; type: cell-based, Lasius niger; conditions: 10 µM peptide, L. niger INTR
Protocol: as §1, §4

[12] = IP1 accumulation, mean ± SEM, read-out: Potency (EC50)
[13] = IP1 response, human OTR, read-out: EC50
[14] = IP1 response, human V1aR, read-out: EC50
[15] = Affinity (Ki), displacement of [3H] vasopressin, mean ± SEM
[16] = 100 nM, relative to control activity

T4 sequence (P37288 whole entry): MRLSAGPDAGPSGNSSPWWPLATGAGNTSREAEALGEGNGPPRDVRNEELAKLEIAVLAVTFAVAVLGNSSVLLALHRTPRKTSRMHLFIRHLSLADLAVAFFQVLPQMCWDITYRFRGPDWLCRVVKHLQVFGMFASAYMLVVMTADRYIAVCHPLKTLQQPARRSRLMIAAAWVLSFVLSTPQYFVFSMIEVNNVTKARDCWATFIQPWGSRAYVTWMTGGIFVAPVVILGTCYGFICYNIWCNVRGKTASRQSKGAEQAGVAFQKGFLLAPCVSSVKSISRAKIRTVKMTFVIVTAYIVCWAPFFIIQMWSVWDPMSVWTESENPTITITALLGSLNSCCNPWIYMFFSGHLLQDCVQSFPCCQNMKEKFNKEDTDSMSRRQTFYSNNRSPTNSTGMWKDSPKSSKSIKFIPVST
T1 sequence (P30518 whole entry): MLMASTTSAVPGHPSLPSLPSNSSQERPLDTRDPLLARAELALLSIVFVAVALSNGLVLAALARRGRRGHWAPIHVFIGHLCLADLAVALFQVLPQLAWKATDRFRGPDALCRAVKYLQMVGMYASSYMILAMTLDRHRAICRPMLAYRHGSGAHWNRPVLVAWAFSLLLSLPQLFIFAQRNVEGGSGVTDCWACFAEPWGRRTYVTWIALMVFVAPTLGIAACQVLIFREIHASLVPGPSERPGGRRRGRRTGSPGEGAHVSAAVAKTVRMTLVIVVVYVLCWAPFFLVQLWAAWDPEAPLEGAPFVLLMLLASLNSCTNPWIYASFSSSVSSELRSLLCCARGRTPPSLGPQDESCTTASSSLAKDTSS

Compound	EC50 (human V2R [1]) [µM]	EC50 (human V1bR [2]; [12]) [µM]	EC50 (human OTR [3]; [12]) [µM]	EC50 (human OTR [3]; [13]) [µM]	Ki (human OTR [4]) [µM]	EC50 (human V1aR [6]; [12]) [µM]	EC50 (human V1aR [6]; [14]) [µM]	Ki (human V1bR [8]; [15]) [µM]	Ki (human V2R [9]; [15]) [µM]	further results
CC[C@H](C)[C@@H]1NC(=O)[C@H](CC(C)C)NC(=O)[C@@H](N)CSSC[C@@H](C(=O)N2CCC[C@H]2C(=O)N[C@@H](CCCNC(=N)N)C(=O)NCC(N)=O)NC(=O)[C@H](CC(N)=O)NC(=O)[C@H]([C@@H](C)O)NC1=O [inotocin] (H-CLITNCPRG-NH2; disulfide 1-6)	> 1.5	0.056 ± 0.0097	> 100	> 10	0.062 ± 0.037	> 100	> 10	0.012 ± 0.0065	> 100	half-life ([5]; human serum, 37 °C, 100 μM peptide, read-out: half-life t½ (converted)): 2.8 h; degradation in human serum ([5]; within 24 h): fully degraded; Ki (human V1aR [7]; read-out: Affinity (Ki)): 0.011 ± 0.0044 µM
COc1ccc(S(=O)(=O)N2c3ccc(Cl)cc3[C@](O)(c3ccccc3Cl)[C@@H]2C(=O)N2CCC[C@H]2C(N)=O)cc1OC [SR49059, relcovaptan]										reduction of area-under-the-curve (AUC) (human myometrium; [16]): 72.1%; reduction of contraction amplitude (human myometrium; [16]): 54.8%; concentration at which decrease in area-under-the-curve became significant (human myometrium; tested 1-100 nM): 30 nM; concentration at which decrease in contraction amplitude became significant (human myometrium; tested 1-100 nM): 30 nM
CC[C@H](C)[C@@H]1NC(=O)[C@H](CC(C)C)NC(=O)[C@@H](N)CSSC[C@@H](C(=O)N2CCC[C@H]2C(=O)N[C@H](CCCNC(=N)N)C(=O)NCC(N)=O)NC(=O)[C@H](CC(N)=O)NC(=O)[C@H]([C@@H](C)O)NC1=O [[D-Arg8]-inotocin] (H-CLITNCP[dR]G-NH2; disulfide 1-6)	0.164 ± 0.026	> 100	> 100	> 10	> 4	> 100	> 10	> 100	> 100	EC50 (human V1bR [2]; IP1 response, human V1bR, read-out: EC50): > 10 µM; Kb (human V1aR [10]): 0.0158 µM; remaining at 24 h ([5]; human serum, 37 °C, 24 h, read-out: peptide still present after 24 h): > 70%; binding selectivity (human V1aR [7]; human V1aR over OTR, V1bR and V2R): 3,000 fold; Ki (human V1bR [8]; Ki, no significant displacement, human V1b receptor): > 4 µM; Ki (human V2R [9]; Ki, no significant displacement, human V2 receptor): > 4 µM
1-desamino-8-D-arginine-vasopressin [Desmopressin]										activation (IP1 formation) [11]: inactive; activation (IP1 formation) (inotocin R (L. niger)): inactive
